# Data published in article PMC7807878, “Development of an engineered peptide antagonist against periostin to overcome doxorubicin resistance in breast cancer” (BMC Cancer, 2021).
# Where no end group is shown, it is not given here. The star is where a group is joined. FITC = O=C1OC2(c3ccc(O)cc3Oc3cc(O)ccc32)c2ccc(NC(=S)*)cc21
# Columns and labels:
# MDA-MB-231 cells = experiment: Drug sensitivity (MTS), MDA-MB-231; assay type: cell-based; settings: Homo sapiens, MDA-MB-231, 48 h, MTS
# Procedure: (§1) Determination the IC50 of BCA cells in response to chemotherapeutic drugs was analyzed by MTS assay. The experiment started from 5 × 10^3 of BCA cells in 100 μl medium that were seeded in 96-well plates for 24 h, then media was changed with different concentrations of new chemotherapeutic drugs [doxorubicin (S1208), paclitaxel (S1150), cisplatin (S1166), 5-fluorouracil (5-FU) (S1209) and gemcitabine (S1714) that were purchased from Selleck Chemicals, Houston, TX, USA] with or without rPN and anti-PN peptide for a further 48 h. After that, cell viability was determined by the MTS assay. Combination index (CI) was calculated by IC50 of combination of drug and PN or anti-PN peptide divided by IC50 of chemotherapeutic drug alone.
# (§2) ANOVA test or Student’s t-test were applied for statistical analysis of the experiments. GraphPad Prism® version 7.04 software (GraphPad Software, San Diego, CA, USA) was used in calculation of IC50 values of chemotherapeutic drugs and PASW Statistics software version 18 (SPSS, IBM, Armonk, NY, USA) was used for other analysis. Dose-responses were compared by Holm-Sidak’s multiple comparison test. Mann-Whitney ranked-sum test was used for comparisons between normal and patient serum PN. Chi-square or Fisher’s exact test were used to determine the correlation between PN expression and clinical data in BCA patients. Kaplan-Meier Log-rank test using Kaplan-Meier Plotter online tool (https://kmplot.com/) was performed to determine the correlation between PN expression and survival time of BCA patients by online database. P-values of < 0.05 were used as statistical significance.
# MCF-7 cells = experiment: Drug sensitivity (MTS), MCF-7; assay type: cell-based; settings: Homo sapiens, MCF7, 48 h, MTS
# Procedure: as §1, §2
# [1] = test system: non-denaturing cell lysate of PN-transfected BCA cells (MDA-MB-231 and MCF-7); experiment: Dot blot, FITC-peptide binding to non-denaturing cell lysate of PN-transfected BCA cells; settings: 12.5 μg cell lysate, 4 °C overnight, fluorescence, vs mock
# Source text: (§3) After selecting the best binding sequence of 12-amino acids peptides, 2 types of peptide would be synthesized, plain peptide and peptide conjugated with fluorescein isothiocyanate (FITC). For the synthesis of the latter, a spacer region ([…]) would be added at the C-terminal end of the peptide and FITC was conjugated with the side chain of lysine. Finally, C-terminal amidation would be performed. The synthesis of plain and FITC-labelled anti PN peptides was ordered from Syn Peptide company (Shanghai, China). FITC-labelled anti-PN peptide tested binding affinity to non-denaturing cell lysate of transfected BCA cells and their mock transfected cells and rPN by dot blot analysis. Briefly, 12.5 μg of cell lysate or 500 ng of rPN in 1 μl was applied onto nitrocellulose membrane. The membrane was blocked with 5% BSA followed by peptide incubation at 4 °C overnight and the fluorescent signal was detected the next day using the G:BOX gel documentation system. The checking of anti-PN peptide binding to intact PN-transfected BCA cells was also performed with similar process as immunocytochemistry plus a step of cell membrane permeabilizing after fixation by incubated with 1% Triton X for 1 min at RT. […] The observation was viewed under confocal microscope using laser diode 488 nm.
# rPN = experiment: Dot blot, FITC-peptide binding to rPN; settings: 500 ng rPN, 4 °C overnight, fluorescence
# Source text: as §3
# BSA [2] = target: T1, BSA (Bos taurus, UniProt P02769); experiment: Dot blot, FITC-peptide binding to BSA; settings: BSA negative control, fluorescence
# T1 sequence (P02769 25-607): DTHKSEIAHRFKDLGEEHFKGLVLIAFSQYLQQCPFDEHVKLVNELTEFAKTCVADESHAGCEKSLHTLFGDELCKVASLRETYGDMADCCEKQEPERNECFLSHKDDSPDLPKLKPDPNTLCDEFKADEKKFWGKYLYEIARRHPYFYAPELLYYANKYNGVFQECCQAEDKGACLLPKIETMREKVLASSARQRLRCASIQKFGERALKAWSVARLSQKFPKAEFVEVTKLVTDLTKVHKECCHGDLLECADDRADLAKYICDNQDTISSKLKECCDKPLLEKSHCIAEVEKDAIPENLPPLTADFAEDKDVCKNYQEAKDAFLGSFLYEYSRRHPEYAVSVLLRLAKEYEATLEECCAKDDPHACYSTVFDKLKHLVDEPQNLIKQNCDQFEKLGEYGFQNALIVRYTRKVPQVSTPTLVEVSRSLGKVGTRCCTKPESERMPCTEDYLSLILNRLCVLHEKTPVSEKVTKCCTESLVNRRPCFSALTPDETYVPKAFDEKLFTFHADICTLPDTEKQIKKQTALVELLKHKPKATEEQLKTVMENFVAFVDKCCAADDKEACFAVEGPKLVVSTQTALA
# Source text: as §3
# PN-transfected BCA cells = experiment: Immunocytochemistry, FITC-peptide binding to permeabilized PN-transfected BCA cells; assay type: cell-based; settings: 2 μM FITC-peptide, 1 h at RT, 1% Triton X permeabilized, confocal microscope; PN-transfected vs mock
# Source text: as §3
# BSA [3] = target: T1, BSA; experiment: Isothermal titration calorimetry, binding to BSA (negative control); settings: ITC
# Source text: The physical properties of this peptide would be determined by an online tool (https://www.thermofisher.com) (Thermo Fisher Scientific). Structure of this peptide and the binding properties to PN would be predicted by PEP-FOLD3 [34] and pepATTRACT [35] tools from RPBS Web Portal (https://bioserv.rpbs.univ-paris-diderot.fr) using PN 3D-structure from RCSB PDB database (https://www.rcsb.org/structure/5YJG). […] The procedure followed the instructions for the machine. The results would be determined by the measurement of the exothermic energy after intermittent injection into the cell compartment and reported as the binding affinity constant (KD).
molecule,measurement,setting,value
COc1cccc2c1C(=O)c1c(O)c3c(c(O)c1C2=O)C[C@@](O)(C(=O)CO)C[C@@H]3O[C@H]1C[C@H](N)[C@H](O)[C@H](C)O1 [doxorubicin],IC50,"MDA-MB-231 cells; doxorubicin with anti-PN peptide, PN-transfected MDA-MB-231, 48 h, P-value = 0.002",797 nM
same,IC50,"MDA-MB-231 cells; doxorubicin with anti-PN peptide, mock transfected MDA-MB-231, 48 h, P-value = 0.932",706 nM
same,IC50,"MDA-MB-231 cells; doxorubicin, PN-transfected MDA-MB-231, 48 h, P-value < 0.001 vs mock",1090 nM
same,IC50,"MDA-MB-231 cells; doxorubicin, anti-PN peptide treated MDA-MB-231 without rPN, 48 h, P-value = 0.870",896 nM
same,IC50,"MDA-MB-231 cells; doxorubicin, mock transfected MDA-MB-231, 48 h",710 nM
same,IC50,"MDA-MB-231 cells; doxorubicin, rPN + anti-PN peptide treated MDA-MB-231, 48 h, P-value = 0.038",1300 nM
same,IC50,"MDA-MB-231 cells; doxorubicin, rPN-treated MDA-MB-231, 48 h, P-value = 0.024",1990 nM
same,IC50,"MDA-MB-231 cells; doxorubicin, untreated control MDA-MB-231 (rPN treatment experiment), 48 h",845 nM
same,IC50,"MCF-7 cells; doxorubicin with anti-PN peptide, PN-transfected MCF-7, 48 h, P-value = 0.007",970 nM
same,IC50,"MCF-7 cells; doxorubicin, PN-transfected MCF-7, 48 h, P-value = 0.013 vs mock",1440 nM
same,IC50,"MCF-7 cells; doxorubicin, anti-PN peptide treated MCF-7 without rPN, 48 h, P-value = 0.558",1040 nM
same,IC50,"MCF-7 cells; doxorubicin, mock transfected MCF-7, 48 h",1070 nM
same,IC50,"MCF-7 cells; doxorubicin, rPN + anti-PN peptide treated MCF-7, 48 h, P-value = 0.038",1270 nM
same,IC50,"MCF-7 cells; doxorubicin, rPN-treated MCF-7, 48 h, P-value = 0.007",1460 nM
same,IC50,"MCF-7 cells; doxorubicin, untreated control MCF-7 (rPN treatment experiment), 48 h",1050 nM
FITC-labelled anti-PN peptide (TFATHGKHWAAPGGGSCK(FITC)-NH2; N-terminus assumed; SMILES C[C@H](NC(=O)[C@H](Cc1c[nH]c2ccccc12)NC(=O)[C@H](Cc1c[nH]cn1)NC(=O)[C@H](CCCCN)NC(=O)CNC(=O)[C@H](Cc1c[nH]cn1)NC(=O)[C@@H](NC(=O)[C@H](C)NC(=O)[C@H](Cc1ccccc1)NC(=O)[C@@H](N)[C@@H](C)O)[C@@H](C)O)C(=O)N[C@@H](C)C(=O)N1CCC[C@H]1C(=O)NCC(=O)NCC(=O)NCC(=O)N[C@@H](CO)C(=O)N[C@@H](CS)C(=O)N[C@@H](CCCCNC(=S)Nc1ccc2c(c1)C(=O)OC21c2ccc(O)cc2Oc2cc(O)ccc21)C(N)=O),Peptide binding to PN-transfected cell lysate,[1],higher in both PN-transfected BCA cells compared with their mock control cells
same,Peptide binding to rPN,rPN,markedly increased in rPN
same,Peptide binding to BSA,BSA [2],no signal in BSA
same,Peptide binding in permeabilized cells,PN-transfected BCA cells,confirmed by immunocytochemistry staining in permeabilized cells
TFATHGKHWAAP [anti-PN peptide],Binding affinity to BSA,BSA [3],could not be determined in BSA
